Test results published in patent publication EP0396317B1, “Pharmaceutical composition” (priority 1989, dated 1990).

Assay: solubility and pH-dependent separation of the carbenoxolone/chlorhexidine complex
Format: physicochemical

behaviour of the complex suspension at high pH (pH 9.0 or more): can be separated by filtration
behaviour of the complex suspension at low pH (pH less than 3.5 / 3.5 or less): will remain in solution
Compound: [H]/N=C(\N/C(=N/[H])NCCCCCCNC(=N)NC(=N)Nc1ccc(Cl)cc1)Nc1ccc(Cl)cc1 [chlorhexidine]
